Counter-ions that a name gives are not always drawn. Like-named read-outs stand apart in the source and are kept apart here.
Experiments:
[1] = biological target: T1, human recombinant dopamine D4.2 receptor (Homo sapiens, UniProt P21917, DEL265-296); test: [3H]spiperone receptor binding assay, D4.2 (CHO K1 membranes); conditions: [3H]spiperone 0.2 nM, human D4.2, CHO K1 membranes, 60 minutes at 25° C.
T1 construct: expressed in transfected cells
T1 sequence (P21917 with tags, fused parts or gaps DEL265-296): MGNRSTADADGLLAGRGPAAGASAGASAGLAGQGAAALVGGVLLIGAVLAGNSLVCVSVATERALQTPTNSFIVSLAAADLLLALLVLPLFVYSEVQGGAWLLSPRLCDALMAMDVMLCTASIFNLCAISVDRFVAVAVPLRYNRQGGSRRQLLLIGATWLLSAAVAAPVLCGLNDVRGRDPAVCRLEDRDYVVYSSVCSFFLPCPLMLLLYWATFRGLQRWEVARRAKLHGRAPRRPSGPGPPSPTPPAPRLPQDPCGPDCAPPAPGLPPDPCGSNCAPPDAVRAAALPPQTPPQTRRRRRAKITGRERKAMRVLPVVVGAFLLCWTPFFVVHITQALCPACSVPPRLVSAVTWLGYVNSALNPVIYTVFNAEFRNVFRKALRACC
Description: (§1) A cell line expressing human dopamine D2 (Long form) receptors was purchased from Oregon Health Sciences University, Portland, Ore. The D2 receptor cDNA was subcloned into an expression vector, pRc/CMV. The plasmids were transfected by electroporation into CHO K1 cells. A single stable transfectant, resistant to the antibiotic G418, was isolated and selected for use in the binding studies. For D4 binding, CHO K1 cells stably transfected to express the human recombinant dopamine D4.2 receptor subtype, as described by Shih, et al., "The expression and functional characterization of human dopamine D4.2 receptor in CHO K1 cells," Soc.
(§2) Cells were grown until confluent, after which growth medium was removed and replaced with 0.02% ethylene diamine tetracetate (EDTA) in a phosphate-buffered saline solution (Sigma Chemical Co; St. Louis, Mo.) and scraped from the flasks. The cells were centrifuged at about 1000×g for 10 minutes at 40° C. and then resuspended in TEM buffer (25 mM Tris-HCL, pH 7.4, 5 mM EDTA, and 6 mM MgCl2) for D2 or the D4.2 buffer (50 mM Tris-HCl, pH 7.4, 5 mM EDTA, 1.5 mM CaCl2, 5 mM KCl, and 120 mM NaCl) and homogenized. The membranes were pelleted by centrifugation at 20,000×g at 40° C. for 20 minutes. Then the pellets were resuspended in an appropriate buffer at 1 mL/flask and stored at -70° C. until used in the receptor binding assay.
After 60 minutes incubation at 25° C., the incubations were terminated by rapid filtration through Whatmann GF/B glass fibre filters (soaked for 1 hour in 0.5% polyethylenimine) on a -cell harvester, with three washes of 1 mL ice-cold buffer. […] Nonspecific binding was defined in presence of 1 mM of haloperidol.
(§3) Saturation and competition binding data were analyzed using an iterative nonlinear least-square curve-fitting Ligand program. […] Experimental compounds were made up as stock solutions in dimethyl sulfoxide (DMSO). […] Each observation was carried out in triplicate. To allow these calculations, Kd values were measured for the interaction of various ligands with the receptor. […]

[2] = biological target: human dopamine D2 (Long form) receptor (Homo sapiens, UniProt P14416); test: [3H]spiperone receptor binding assay, D2 (Long form) (CHO K1 membranes)
Description: as §1, with “Soc. Neurosci., 1995;21(Part 1):621.” for “Soc.”
as §2, with “CHO K1 cells expressing either human D2 and D4.2 receptors were grown in 162 cm^2 culture flasks in F12 medium (Gibco Laboratories, Grand Island, N.Y.) supplemented with 10% fetal bovine serum (FBS, Hyclone, Logan, UT) in an atmosphere of 5% Co2 /95% air at 37° C. Cells” for “Cells”
After 60 minutes incubation at 25° C., the incubations were terminated by rapid filtration through Whatmann GF/B glass fibre filters (soaked for 1 hour in 0.5% polyethylenimine) on a -cell harvester, with three washes of 1 mL ice-cold buffer. Individual filter disks containing the bound ligand were placed in counting vials with 4 mL of scintillation fluid (Ready Gel, Beckman Instrument Inc, Fullerton, Calif.) and then counted in a Beckman LS-6800 liquid scintillation counter at an efficiency of 45%. Nonspecific binding was defined in presence of 1 mM of haloperidol.
as §3

[3] = [3H]spiperone 0.2 nM, human D2 (Long form), CHO K1 membranes, 60 minutes at 25° C., read-out: D2 Ki

Sequence of human dopamine D2 (Long form) receptor (P14416 whole entry): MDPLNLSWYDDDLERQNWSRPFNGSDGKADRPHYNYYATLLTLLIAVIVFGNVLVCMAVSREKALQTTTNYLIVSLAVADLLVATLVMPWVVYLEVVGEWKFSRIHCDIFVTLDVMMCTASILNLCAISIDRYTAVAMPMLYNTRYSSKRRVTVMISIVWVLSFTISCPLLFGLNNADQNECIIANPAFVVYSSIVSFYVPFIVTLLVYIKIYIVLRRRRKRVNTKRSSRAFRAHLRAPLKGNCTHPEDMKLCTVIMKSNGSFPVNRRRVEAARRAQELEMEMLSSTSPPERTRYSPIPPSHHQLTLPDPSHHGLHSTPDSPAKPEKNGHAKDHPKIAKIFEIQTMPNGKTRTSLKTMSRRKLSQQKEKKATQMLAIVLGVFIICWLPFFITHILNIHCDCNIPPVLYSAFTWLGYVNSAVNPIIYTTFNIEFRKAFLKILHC

SMILES	Ki ([1]; read-out: D4 Ki) [nM]	Ki [2, 3] [nM]	Ki ([1]; D4 Ki) [nM]	Ki [2] [nM]
Cc1cccc(N2CCN(Cc3ccc4ccc(=O)oc4c3)CC2)c1Cl [Example 20, 7-[4-(2-Chloro-3-methyl-phenyl)-piperazin-1-ylmethyl]-chromen-2-one]	40	5880		
O=c1ccc2ccc(CN3CCN(c4ccccn4)CC3)cc2o1 [Example 25, 2H-1-Benzopyran-2-one, 7-[[4-(2-pyridinyl)-1-piperazinyl]methyl]-, dihydrochloride]	68.2	> 5880		
Cc1cccc(N2CCN(Cc3ccc4ccc(=O)oc4c3)CC2)c1 [Example 17, 7-(4-m-Tolyl-piperazin-1-ylmethyl)-chromen-2-one]		4400	32	
Cc1ccccc1N1CCN(Cc2ccc3ccc(=O)oc3c2)CC1 [Example 4, 7-(4-o-Tolyl-piperazin-1-ylmethyl)-chromen-2-one]		1940	16.3	
Cc1ccc(N2CCN(Cc3ccc4ccc(=O)oc4c3)CC2)cc1Cl [Example 1, 7-[4-(3-Chloro-4-methyl-phenyl)-piperazin-1-ylmethyl]-chromen-2-one]			6.9	> 5880
O=c1ccc2ccc(CN3CCN(c4cccc(Cl)c4Cl)CC3)cc2o1 [Example 21, 7-[4-(2,3-Dichloro-phenyl)-piperazin-1-ylmethyl]-chromen-2-one]	41.1	1840		
Cc1ccc(N2CCN(Cc3ccc4ccc(=O)oc4c3)CC2)cc1C [Example 3, 7-[4-(3,4-Dimethyl-phenyl)-piperazin-1-ylmethyl]-chromen-2-one]		433	13.9	

Continued, in another order:

Ki ([1]; read-out: D4 Ki) [nM]	Ki [2, 3] [nM]	SMILES	Ki ([1]; D4 Ki) [nM]	Ki [2] [nM]
29.7	2170	O=c1ccc2cc(CN3CCN(c4ccccn4)CC3)ccc2o1 [Example 44, 2H-1-Benzopyran-2-one, 6-[[4-(2-pyridinyl)-1-piperazinyl]methyl]-, dihydrochloride]		
23	> 10000	O=c1ccc2ccc(CN3CCN(c4cccc(Cl)c4)CC3)cc2o1 [Example 9, 7-[4-(3-Chloro-phenyl)-piperazin-1-ylmethyl]-chromen-2-one]		
12.6	2980	O=c1ccc2cc(CN3CCN(c4ccc(CO)c(Br)c4)CC3)ccc2o1 [Example 37, 6-[4-(3-Bromo-4-hydroxymethyl-phenyl)-piperazin-1-ylmethyl]-chromen-2-one]		
19.4	3320	O=c1ccc2cc(CN3CCN(c4cccc(Cl)c4)CC3)ccc2o1 [Example 41, 6-[4-(3-Chloro-phenyl)-piperazin-1-ylmethyl]-chromen-2-one]		
16.8	635	O=c1ccc2ccc(CN3CCN(c4ccccc4Cl)CC3)cc2o1 [Example 5, 7-[4-(2-Chloro-phenyl)-piperazin-1-ylmethyl]-chromen-2-one]		
8.8	3250	Cc1cccc(N2CCN(Cc3ccc4oc(=O)ccc4c3)CC2)c1C [Example 35, 6-[4-(2,3-Dimethyl-phenyl)-piperazin-1-ylmethyl]-chromen-2-one]		
27.3	7120	O=c1ccc2ccc(CN3CCN(c4ccc(F)c(C(F)(F)F)c4)CC3)cc2o1 [Example 15, 7-[4-(4-Fluoro-3-trifluoromethyl-phenyl)-piperazin-1-ylmethyl]-chromen-2-one]		
18	> 5880	O=c1ccc2cc(CN3CCN(c4ccc(CO)c(F)c4)CC3)ccc2o1 [Example 40, 6-[4-(3-Fluoro-4-hydroxymethyl-phenyl)-piperazin-1-ylmethyl]-chromen-2-one]		
15	1200	O=c1ccc2cc(CN3CCN(c4cccc(Cl)c4Cl)CC3)ccc2o1 [Example 39, 6-[4-(2,3-Dichloro-phenyl)-piperazin-1-ylmethyl]-chromen-2-one]		

From patent publication US5922719A, “Coumarin dopamine D4 receptor antagonists” (priority 1997, dated 1999)
